“And” between values parts separate entries of the source, which are not always exact repeats. Equal values may be shown once. “Also recorded” adds a separate entry of the source.
Key:
Format in all cases: cell-based, E. coli XL10-Gold
[1] = test system: BjaRS107R (B0033|ATG) receiver cells; test: IV-HSL biosynthesis by BjaI-expressing synthetic cells (GUVs), quantified with receiver cells; settings: 10 nM IV-HSL control, Dilution -, sheet 4d
[2] = test system: BjaRKO receiver cells (pSB1A3–bjaRKO–gfp); test: BjaR receiver cell AHSL dose-response (gfp reporter, plate reader)
Excerpt: (§1) Next, we set out to establish a unidirectional communication pathway by reconstituting the BjaI and BjaR QS machinery, separately, within synthetic cells and E. coli, respectively. As a starting point, IV-HSL-responsive receiver cells were created by transforming E. coli XL10-Gold cells with a reporter plasmid, pSB1A3–bjaR–gfp[28]. This plasmid contained a bjaR gene under the control of a constitutively active J23100 promoter and a gfp gene under the control of a pBjaR promoter. The pBjaR promoter was formed by substituting the lux-box of the pLux promoter with the BjaR-binding site (Supplementary Fig. 10). […] Although this reporter plasmid had been characterized previously, gfp expression was initiated with C4-HSL rather than the cognate ligand, IV-HSL. Thus, we first evaluated the dose–response relationship between synthetic IV-HSL (synthesis described in Methods) and GFP production by BjaR receiver cells. The cells were grown in M9 minimal media to an optical density at 600 nm (OD600) = 0.05, then transferred to a 96-well plate containing IV-HSL and incubated at 37 °C, 800 r.p.m., for 4 h. […] To elucidate the root cause of the high background fluorescence, a BjaRKO variant of the reporter plasmid was constructed. […] Therefore, the high OFF-state was attributed to BjaR-mediated transcription activation in the absence of IV-HSL, rather than host transcription factors recognizing the pBjaR promoter, or transcription factor independent gfp expression.
(§2) The BjaR reporter plasmids were retransformed into E. coli XL10-Gold cells for each experiment. A single colony was used to inoculate 5 ml LB + Amp media and incubated at 37 °C, 225 r.p.m. overnight. Overnight cultures were diluted 1/250 or 1/500 in 5 ml M9 minimal media + Amp and incubated at 37 °C, 225 r.p.m. for 3 h and 45 min (until OD600 = ~0.075). Cultures were diluted down to OD600 = 0.05 with M9 minimal media + Amp, and 200 µl was added to wells of a 96-well plate containing 1 µl IV-HSL dissolved in DMSO or 1 µl BjaI CFPS reactions (IV-HSL concentrations obtained from serial dilution from 63.2 µM to 632 pM; final DMSO concentration = 0.5%). Cells were incubated at 37 °C, 800 r.p.m., in a thermomixer with a heated lid for 4 h. Fluorescence and OD600 were measured in a Tecan M1000 infinite plate reader (excitation, 488 nm; emission, 510 nm; bandwidth, 5 nm; gain, 101 and z position, 21,311 µm). The dose–response curves were fitted to the function indicated by Eq. (1), where a = maximal fluorescence output, b = basal fluorescence output, X = concentration of AHSL, GFP = fluorescence at the given condition, EC50 = AHSL at 50% maximal fluorescence output and h = hill coefficient. EC50 and h were derived using the nonlinear regression model based on Eq. (1), in MATLAB. A summary of the dose–response data is available in Supplementary Table 1.1 GFP=b+a−b/1+10^logEC50−X×h

[3] = test system: BjaRWT (B0034|ATG) receiver cells (pSB1A3–bjaR–gfp); test: as above
Excerpt: as §1, §2

Q: Which Mean normalised fluorescence [1] does the source give for `CC(C)CC(=O)N[C@H]1CCOC1=O` [IV-HSL, N-isovaleryl-L-homoserine lactone] here?
A: 190979

Q: And the Normalised fluorescence ([1]; Expt1-3)?
A: 175106 and 224036 and 173796

Q: And the GFP ([1]; raw fluorescence ex 488/em 510 nm, Expt1-3)?
A: 33963 and 48451 and 56546

Q: And the “gfp expression in presence of IV-HSL” value ([2]; BjaR knocked out)?
A: completely ablated gfp expression; also recorded: minimal gfp expression

Q: And the GFP ([2]; Log([ASHL]) -6.5)?
A: 184 and 176 and 173

Q: And the Mean normalised fluorescence ([2]; Log([ASHL]) -6.5)?
A: 361.621

Q: And the Normalised fluorescence ([2]; Log([ASHL]) -6.5)?
A: 365.437 and 317.314 and 402.112

Q: And the GFP ([2]; Log([ASHL]) -7)?
A: 173 and 168 and 165

Q: And the Mean normalised fluorescence ([2]; Log([ASHL]) -7)?
A: 321.731

Q: And the Normalised fluorescence ([2]; Log([ASHL]) -7)?
A: 319.68 and 293.754 and 351.759

Q: What about the GFP ([2]; Log([ASHL]) -7.5) of the same compound?
A: 177 and 169 and 166

Q: And the Mean normalised fluorescence ([2]; Log([ASHL]) -7.5)?
A: 323.42

Q: And the Normalised fluorescence ([2]; Log([ASHL]) -7.5)?
A: 331.126 and 287.856 and 351.279

Q: What about the GFP ([2]; Log([ASHL]) -8) of the same compound?
A: 168 and 166 and 175

Q: And the Mean normalised fluorescence ([2]; Log([ASHL]) -8)?
A: 329.861

Q: What about the Normalised fluorescence ([2]; Log([ASHL]) -8) of the same compound?
A: 292.758 and 367.412 and 329.412

Q: And the GFP ([2]; Log([ASHL]) -8.5)?
A: 168 and 165 and 177

Q: What about the Mean normalised fluorescence ([2]; Log([ASHL]) -8.5) of the same compound?
A: 326.491

Q: And the Normalised fluorescence ([2]; Log([ASHL]) -8.5)?
A: 291.054 and 362.261 and 326.158

Q: And the GFP ([2]; Log([ASHL]) -9)?
A: 165 and 164 and 177

Q: And the Mean normalised fluorescence ([2]; Log([ASHL]) -9)?
A: 335.395

Q: What about the Normalised fluorescence ([2]; Log([ASHL]) -9) of the same compound?
A: 295.725 and 362.027 and 348.432

Q: What about the GFP ([2]; Log([ASHL]) -9.5) of the same compound?
A: 164 and 162 and 172

Q: And the Mean normalised fluorescence ([2]; Log([ASHL]) -9.5)?
A: 325.095

Q: And the Normalised fluorescence ([2]; Log([ASHL]) -9.5)?
A: 293.548 and 346.048 and 335.689

Q: And the GFP ([2]; Log([ASHL]) -10)?
A: 163 and 162 and 171

Q: And the Mean normalised fluorescence ([2]; Log([ASHL]) -10)?
A: 332.521

Q: And the Normalised fluorescence ([2]; Log([ASHL]) -10)?
A: 290.698 and 371.151 and 335.714

Q: And the GFP ([2]; Log([ASHL]) -10.5)?
A: 166 and 164 and 173

Q: What about the Mean normalised fluorescence ([2]; Log([ASHL]) -10.5) of the same compound?
A: 338.795

Q: And the Normalised fluorescence ([2]; Log([ASHL]) -10.5)?
A: 301.85 and 369.458 and 345.075

Q: And the GFP ([2]; Log([ASHL]) -11)?
A: 163 and 161 and 171

Q: And the Mean normalised fluorescence ([2]; Log([ASHL]) -11)?
A: 330.063

Q: And the Normalised fluorescence ([2]; Log([ASHL]) -11)?
A: 296.053 and 361.746 and 332.39

Q: What about the GFP ([2]; Log([ASHL]) -11.5) of the same compound?
A: 165 and 174 and 162

Q: And the Mean normalised fluorescence ([2]; Log([ASHL]) -11.5)?
A: 344.578

Q: What about the Normalised fluorescence ([2]; Log([ASHL]) -11.5) of the same compound?
A: 307.076 and 352.984 and 373.673

Q: What about the “IV-HSL concentration at which gfp expression saturated” value ([3]; 4 h, 37 °C) of the same compound?
A: ~ 100 nM

Q: And the “lowest IV-HSL concentration giving increased gfp expression” value ([3]; 4 h, 37 °C)?
A: 100 pM

Q: And the EC50 ([3]; Escherichia coli, IV-HSL-activated gfp expression, M9 minimal media, 37 °C, 4 h)?
A: 1 ± 0.11 nM

Q: And the GFP ([3]; Log([ASHL]) -6.5)?
A: 5520 and 5263 and 4853

Q: And the Mean normalised fluorescence ([3]; Log([ASHL]) -6.5)?
A: 51540.5

Q: And the Normalised fluorescence ([3]; Log([ASHL]) -6.5)?
A: 52896 and 49381.5 and 52343.9

Q: And the GFP ([3]; Log([ASHL]) -7)?
A: 4847 and 5318 and 4599

Q: What about the Mean normalised fluorescence ([3]; Log([ASHL]) -7) of the same compound?
A: 48761.2

Q: What about the Normalised fluorescence ([3]; Log([ASHL]) -7) of the same compound?
A: 46176.2 and 48745.4 and 51362.1

Q: What about the GFP ([3]; Log([ASHL]) -7.5) of the same compound?
A: 4806 and 4967 and 4256

Q: And the Mean normalised fluorescence ([3]; Log([ASHL]) -7.5)?
A: 50366.9

Q: What about the Normalised fluorescence ([3]; Log([ASHL]) -7.5) of the same compound?
A: 49622.2 and 48407.5 and 53071.1

Q: And the GFP ([3]; Log([ASHL]) -8)?
A: 4739 and 4412 and 4755

Q: What about the Mean normalised fluorescence ([3]; Log([ASHL]) -8) of the same compound?
A: 51222.6

Q: What about the Normalised fluorescence ([3]; Log([ASHL]) -8) of the same compound?
A: 48553.6 and 53423.6 and 51690.6

Q: And the GFP ([3]; Log([ASHL]) -8.5)?
A: 4235 and 3971 and 4223

Q: What about the Mean normalised fluorescence ([3]; Log([ASHL]) -8.5) of the same compound?
A: 46308.3

Q: And the Normalised fluorescence ([3]; Log([ASHL]) -8.5)?
A: 43174.3 and 50090 and 45660.8

Q: And the GFP ([3]; Log([ASHL]) -9)?
A: 3046 and 2749 and 2957

Q: What about the Mean normalised fluorescence ([3]; Log([ASHL]) -9) of the same compound?
A: 32989.1

Q: And the Normalised fluorescence ([3]; Log([ASHL]) -9)?
A: 31098.3 and 35762 and 32107

Q: What about the GFP ([3]; Log([ASHL]) -9.5) of the same compound?
A: 2089 and 1773 and 1816

Q: And the Mean normalised fluorescence ([3]; Log([ASHL]) -9.5)?
A: 20544.4

Q: What about the Normalised fluorescence ([3]; Log([ASHL]) -9.5) of the same compound?
A: 19459.5 and 23021.7 and 19152

Q: And the GFP ([3]; Log([ASHL]) -10)?
A: 1495 and 1301 and 1477

Q: And the Mean normalised fluorescence ([3]; Log([ASHL]) -10)?
A: 15546.1

Q: What about the Normalised fluorescence ([3]; Log([ASHL]) -10) of the same compound?
A: 14827.9 and 16425.7 and 15384.6

Q: And the GFP ([3]; Log([ASHL]) -10.5)?
A: 1424 and 1254 and 1414

Q: What about the Mean normalised fluorescence ([3]; Log([ASHL]) -10.5) of the same compound?
A: 15128.3

Q: And the Normalised fluorescence ([3]; Log([ASHL]) -10.5)?
A: 14176.3 and 15945.9 and 15262.6

Q: What about the GFP ([3]; Log([ASHL]) -11) of the same compound?
A: 1414 and 1258 and 1391

Q: And the Mean normalised fluorescence ([3]; Log([ASHL]) -11)?
A: 15383.1

Q: What about the Normalised fluorescence ([3]; Log([ASHL]) -11) of the same compound?
A: 14419.4 and 15744.7 and 15985.4

Q: And the GFP ([3]; Log([ASHL]) -11.5)?
A: 1447 and 1104 and 1274

Q: And the Mean normalised fluorescence ([3]; Log([ASHL]) -11.5)?
A: 15262.1

Q: What about the Normalised fluorescence ([3]; Log([ASHL]) -11.5) of the same compound?
A: 15049.3 and 14629.6 and 16107.4

From article PMC10449621, “Engineering cellular communication between light-activated synthetic cells and bacteria” (Nature Chemical Biology, 2023)
